Source: patent US20240383908A1, “SYNTHESIS AND APPLICATION OF PHOSPHATASE DEGRADER” (HINOVA PHARMACEUTICALS INC., priority 2021, published 2024)

Target: T1, SHP2 protein (Homo sapiens, UniProt Q06124)
T1 sequence (Q06124 1-593): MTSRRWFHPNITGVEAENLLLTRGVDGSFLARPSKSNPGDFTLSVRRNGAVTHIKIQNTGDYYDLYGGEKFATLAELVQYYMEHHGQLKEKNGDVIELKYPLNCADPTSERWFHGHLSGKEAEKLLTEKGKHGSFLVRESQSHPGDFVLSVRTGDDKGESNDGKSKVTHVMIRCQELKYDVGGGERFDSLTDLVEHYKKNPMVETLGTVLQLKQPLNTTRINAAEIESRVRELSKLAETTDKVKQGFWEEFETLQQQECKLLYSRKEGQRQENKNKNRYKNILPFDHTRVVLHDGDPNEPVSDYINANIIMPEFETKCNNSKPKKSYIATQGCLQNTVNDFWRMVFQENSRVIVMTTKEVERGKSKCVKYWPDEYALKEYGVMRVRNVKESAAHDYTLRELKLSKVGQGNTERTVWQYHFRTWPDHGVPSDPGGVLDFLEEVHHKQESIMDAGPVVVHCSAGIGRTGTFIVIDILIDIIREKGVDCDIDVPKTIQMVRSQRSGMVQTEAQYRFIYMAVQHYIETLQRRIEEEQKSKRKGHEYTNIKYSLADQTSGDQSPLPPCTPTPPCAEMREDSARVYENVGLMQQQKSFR
Assay: Degradation activity on SHP2 protein in MIA Paca-2 cells (Western blot, DC50)
Assay type: cell-based
Parameters: endogenous in cells; host or cells: MIA Paca-2 cells
Conditions: read-out: Degradation activity for differenct cell lines MIA Paca-2 (DC50)
Experimental: (1) MV-411 cells were cultured in the cell culture medium, and then well-growing cells were selected and inoculated in a 12-well plate, with 1 mL/well and 1×10^6 cells/well. The plate was incubated overnight in a 5% CO2 cell incubator at 37° C.
(2) 10 mM storage solution of each drug was prepared using dimethylsulfoxide (DMSO). The stock solution was diluted gradually with DMSO before use, and then 1 μL of the compound solution was added to the cell culture well (to ensure that the DMSO concentration in the culture system was […]), so that the final drug concentration is 100 nM, 10 nM, 3 nM, 1 nM, 0.3 nM, and 0.1 nM. Two wells were set for each concentration. The plate was gently shaken and mixed. Additionally, negative control wells (containing an equal amount of DMSO) and positive control wells were included.
(3) After 24 hours of cultivation, the cells were lysed using RIPA cell lysate, and the proteins were extracted. The protein concentration was measured using a BCA assay kit. 5× concentrated protein buffer was loaded, heated at 100° C. for 5 min, and then the sample was stored at −20° C.
(4) For each well, 30 μg of protein was loaded to polyacrylamide gel for electrophoresis.
(5) The protein was transferred from polyacrylamide gel to PVDF membrane, and sealed at room temperature with 5% skimmed milk for 1 h, which was then incubated with the primary antibodies (Anti-SHP2 rabbit mAb and Anti-GAPDH rabbit mAb) at 4° C. overnight. The membrane was washed three times with TBST solution, 10 minutes for each time. After that, the membrane was incubated with the secondary antibodies (horseradish peroxidase labeled goat anti-rabbit IgG) at room temperature for 2 h, and then washed three times with TBST solution, 10 minutes for each time, followed by exposure.
(6) The images were analyzed with Image J grayscale, and the degradation ratio of protein bands in the test group was calculated, based on the negative control group (DMSO) (100%).
(7) Using the Dose-response-inhibition equation in the data processing software GraphPad Prism 8, the DC50 value was obtained (which represents the drug concentration corresponding to 50% degradation of the target protein).
Using similar methods and different cell lines, the degradation activity of the compound according to the present invention on SHP2 protein of different cell lines was tested under suitable culture conditions.

First: C[C@@H]1OCC2(CCN(c3cnc(Sc4cccc(NC(=O)c5ccc(N6CCC(N7CC=C(c8ccc(C(=O)NCc9ccc%10c(c9)CN(C9CCC(=O)NC9=O)C%10=O)c(Cl)c8)CC7)CC6)c(F)c5)c4)cn3)CC2)[C@@H]1N (stereo partly drawn) [Compound 479]
Second: C[C@@H]1OCC2(CCN(c3cnc(Sc4cccc(NC(=O)c5ccc(N6CCC(N7CC=C(c8ccc(C(=O)NCc9ccc%10c(c9)CN(C9CCC(=O)NC9=O)C%10=O)nc8)CC7)C6)c(F)c5)c4)cn3)CC2)[C@@H]1N (stereo partly drawn) [Compound 516]
The DC50 of the first is higher: 100 to 1000 nM for the first, < 100 nM for the second.

`CC1(N)CCN(c2cnc(Sc3cccc(NC(=O)c4ccc(CN5CCN(c6ccc7c(c6)CN(C6CCC(=O)NC6=O)C7=O)CC5)cc4)c3)cn2)CC1` (stereo not drawn) [Compound 286] and `CC1(N)CCN(c2cnc(Sc3cccc(NC(=O)c4cccc(CN5CCN(c6ccc7c(c6)CN(C6CCC(=O)NC6=O)C7=O)CC5)c4)c3)cn2)CC1` (stereo not drawn) [Compound 298] cannot be ordered by DC50: > 1000 nM for the first, > 1000 nM for the second.

Compared with `CC1(N)CCN(c2cnc(Sc3cccc(NC(=O)c4ccc(N5CCC(N6CCN(c7ccc(C(=O)NCc8ccc9c(c8)CN(C8CCC(=O)NC8=O)C9=O)c(F)c7)CC6)CC5)cc4)c3)cn2)CC1` (stereo not drawn) [Compound 502], `CC1(N)CCN(c2cnc(Sc3cccc(NC(=O)c4ccc(N5CCC(N6CCN(c7nnc(C(=O)NCc8ccc9c(c8)CN(C8CCC(=O)NC8=O)C9=O)cc7Cl)CC6)CC5)cc4)c3)cn2)CC1` (stereo not drawn) [Compound 491] is higher in DC50: < 100 nM for the first, > 1000 nM for the second.

`CC1(N)CCN(c2cnc(Sc3cccc(NC(=O)C4CC45CCC(N4CC=C(c6ccc(C(=O)NCc7ccc8c(c7)CN(C7CCC(=O)NC7=O)C8=O)nc6)CC4)CC5)c3)cn2)CC1` (single isomer, unassigned) [Compound 315] and `CC1(N)CCN(c2cnc(Sc3cccc(NC(=O)C4CC45CCC(N4CC=C(c6ccc(C(=O)NCc7ccc8c(c7)CN(C7CCC(=O)NC7=O)C8=O)nn6)CC4)CC5)c3)cn2)CC1` (single isomer, unassigned) [Compound 318] cannot be ordered by DC50: > 1000 nM for the first, > 1000 nM for the second.

`CC1(N)CCN(c2cnc(Sc3cccc(N4CCC(C(=O)N5CCN(c6ccc7c(c6)CN(C6CCC(=O)NC6=O)C7=O)CC5)CC4)c3)cn2)CC1` (stereo not drawn) [Compound 333] and `CC1(N)CCN(c2cnc(Sc3cccc(NC(=O)c4ccc(N5CCC(C(=O)N6CCN(c7ccc8c(c7)CN(C7CCC(=O)NC7=O)C8=O)CC6)CC5)c(F)c4)c3)cn2)CC1` (stereo not drawn) [Compound 335] cannot be ordered by DC50: > 1000 nM for the first, > 1000 nM for the second.

Compared with `CC1(N)CCN(c2cnc(Sc3cccc(NC(=O)C4CC45CCC(N4CC=C(c6ccc(C(=O)N7CCN(c8ccc9c(c8)CN(C8CCC(=O)NC8=O)C9=O)CC7)nc6)CC4)CC5)c3)cn2)CC1` (single isomer, unassigned) [Compound 323], `CC1(N)CCN(c2cnc(Sc3cccc(NC(=O)c4ccc(C5=CCC(N6CC=C(c7ccc(C(=O)N8CCN(c9ccc%10c(c9)CN(C9CCC(=O)NC9=O)C%10=O)CC8)nc7)CC6)CC5)cc4)c3)cn2)CC1` (stereo not drawn) [Compound 308] is lower in DC50: > 1000 nM for the first, < 100 nM for the second.

Going from `CC1(N)CCN(c2cnc(Sc3cccc(NC(=O)C(C)(C)c4ccc(N5CCN(c6ccc(C(=O)NCc7ccc8c(c7)CN(C7CCC(=O)NC7=O)C8=O)nc6)CC5)cc4)c3)cn2)CC1` (stereo not drawn) [Compound 331] to `CC1(N)CCN(c2cnc(Sc3cccc(NC(=O)c4ccc(N5CCC(N6CC=C(c7ccc(C(=O)NCc8ccc9c(c8)CN(C8CCC(=O)NC8=O)C9=O)nc7)C(C)(C)C6)CC5)cc4)c3)cn2)CC1` (stereo not drawn) [Compound 303], the DC50 falls from > 1000 nM to < 100 nM.

`CC1(N)CCN(c2cnc(Sc3cccc(NC(=O)c4ccc(N5CCC(N6CCN(c7nnc(C(=O)NCc8ccc9c(c8)CN(C8CCC(=O)NC8=O)C9=O)cc7Cl)CC6)CC5)c(F)c4)c3)cn2)CC1` (stereo not drawn) [Compound 493] and `CC1(N)CCN(c2cnc(Sc3cccc(NC(=O)c4cnc(N5CCC(N6CCN(c7ccc(C(=O)NCc8ccc9c(c8)CN(C8CCC(=O)NC8=O)C9=O)nn7)CC6)CC5)cn4)c3)cn2)CC1` (stereo not drawn) [Compound 509] cannot be ordered by DC50: < 100 nM for the first, < 100 nM for the second.

First: CC(=O)NC1(C)CCN(c2cnc(Sc3cccc(NC(=O)c4ccc(N5CCC(N6CC=C(c7ccc(C(=O)NCc8ccc9c(c8)CN(C8CCC(=O)NC8=O)C9=O)nc7)CC6)CC5)c(F)c4)c3)cn2)CC1 (stereo not drawn) [Compound 425]
Second: CC1(N)CCN(c2cnc(Sc3cccc(NC(=O)c4ccc(N5CCC(N6CC=C(c7ccc(C(=O)NCc8ccc9c(c8)CN(C8CCC(=O)NC8=O)C9=O)nc7)CC6)CC5)nc4)c3)cn2)CC1 (stereo not drawn) [Compound 324]
The DC50 of the first is higher: > 1000 nM for the first, < 100 nM for the second.

`CC1(N)CCN(c2cnc(Sc3cccc(NC(=O)c4ccc(C5=CCC(N6CC=C(c7ccnc(C(=O)NCc8ccc9c(c8)CN(C8CCC(=O)NC8=O)C9=O)c7)C6)CC5)c(F)c4)c3)cn2)CC1` (stereo not drawn) [Compound 416] and `CC1(N)CCN(c2cnc(Sc3cccc(NC(=O)C4CCC(N5CC=C(c6ccc(C(=O)NCc7ccc8c(c7)CN(C7CCC(=O)NC7=O)C8=O)nc6)CC5)CC4)c3)cn2)CC1` (single isomer, unassigned) [Compound 300] cannot be ordered by DC50: > 1000 nM for the first, > 1000 nM for the second.

Compared with `CC1(N)CCN(c2cnc(Sc3cccc(NC(=O)C4CCC(N5CCC(N6CC=C(c7ccc(C(=O)NCc8ccc9c(c8)CN(C8CCC(=O)NC8=O)C9=O)nc7)CC6)C(F)C5)CC4)c3)cn2)CC1` (stereo not drawn) [Compound 420], `CC1(N)CCN(c2cnc(Sc3cccc(NC(=O)c4csc(N5CCC(N6CC=C(c7ccc(C(=O)NCc8ccc9c(c8)CN(C8CCC(=O)NC8=O)C9=O)nc7)CC6)CC5)n4)c3)cn2)CC1` (stereo not drawn) [Compound 358] is higher in DC50: < 100 nM for the first, > 1000 nM for the second.

`CC1(N)CCN(c2cnc(Sc3cccc(NC(=O)CCN4CC5(CCC(OCCNc6ccc(C(=O)NCc7ccc8c(c7)CN(C7CCC(=O)NC7=O)C8=O)nn6)CC5)C4)c3)cn2)CC1` (stereo not drawn) [Compound 214] and `CC1(N)CCN(c2cnc(Sc3cccc(NC(=O)C4CC5(C4)CC(N4CC=C(c6ccc(C(=O)NCc7ccc8c(c7)CN(C7CCC(=O)NC7=O)C8=O)nn6)CC4)C5)c3)cn2)CC1` (stereo not drawn) [Compound 311] cannot be ordered by DC50: > 1000 nM for the first, > 1000 nM for the second.

Compared with `C[C@H](N)C(=O)N[C@@H](Cc1ccccc1)C(=O)NC1(C)CCN(c2cnc(Sc3cccc(NC(=O)c4ccc(N5CCC(N6CC=C(c7ccc(C(=O)NCc8ccc9c(c8)CN(C8CCC(=O)NC8=O)C9=O)nc7)CC6)CC5)cc4)c3)cn2)CC1` (stereo partly drawn) [Compound 427], `CC1(N)CCN(c2cnc(Sc3cccc(NC(=O)c4ccc(N5CCC(N6CC=C(c7ccc(C(=O)Nc8ccc9c(c8)CN(C8CCC(=O)NC8=O)C9=O)nc7)CC6)CC5)nc4)c3)cn2)CC1` (stereo not drawn) [Compound 325] is lower in DC50: > 1000 nM for the first, < 100 nM for the second.

`C[C@@H]1OCC2(CCN(c3cnc(Sc4cccc(NC(=O)c5ccc(CN6CCN(c7ccc8c(c7)C(=O)N(C7CCC(=O)NC7=O)C8=O)CC6)cc5)c4)cn3)CC2)[C@@H]1N` (stereo partly drawn) [Compound 287] and `C[C@@H]1OCC2(CCN(c3cnc(Sc4cccc(NC(=O)c5ccc(CN6CCN(c7ccc8c(c7)CN(C7CCC(=O)NC7=O)C8=O)CC6)cc5)c4)cn3)CC2)[C@@H]1N` (stereo partly drawn) [Compound 285] cannot be ordered by DC50: > 1000 nM for the first, > 1000 nM for the second.

`C[C@@H]1OCC2(CCN(c3cnc(Sc4cccc(NCc5ccc(CN6CCN(c7ccc8c(c7)CN(C7CCC(=O)NC7=O)C8=O)CC6)cc5)c4)cn3)CC2)[C@@H]1N` (stereo partly drawn) [Compound 255] and `C[C@@H]1OCC2(CCN(c3cnc(Sc4cccc(NC(=O)CCN5CC=C(c6ccc(C(=O)N7CCN(c8ccc9c(c8)CN(C8CCC(=O)NC8=O)C9=O)CC7)nc6)C(C)(C)C5)c4)cn3)CC2)[C@@H]1N` (stereo partly drawn) [Compound 276] cannot be ordered by DC50: > 1000 nM for the first, > 1000 nM for the second.

Compared with `CC1(N)CCN(c2cnc(Sc3cccc(NC(=O)C4CC(N5CCC(N6CC=C(c7ccc(C(=O)Nc8ccc9c(c8)CN(C8CCC(=O)NC8=O)C9=O)nn7)CC6)CC5)C4)c3)cn2)CC1` (stereo not drawn) [Compound 310], `C[C@@H]1OCC2(CCN(c3cnc(Sc4cccc(NC(=O)C5CC(N6CCN(c7ccc(C(=O)NCc8ccc9c(c8)CN(C8CCC(=O)NC8=O)C9=O)nn7)CC6)C5)c4)cn3)CC2)[C@@H]1N` (stereo partly drawn) [Compound 475] is higher in DC50: < 100 nM for the first, > 1000 nM for the second.

In the case of `C[C@@H]1OCC2(CCN(c3cnc(Sc4cccc(NC(=O)c5ccc(N6CCC(N7CCN(c8ccc(C(=O)NCc9ccc%10c(c9)CN(C9CCC(=O)NC9=O)C%10=O)cc8F)CC7)CC6)c(F)c5)c4)cn3)CC2)[C@@H]1N` (stereo partly drawn) [Compound 515], the DC50 was < 100 nM.
